The record followed here is patent publication US5550119A, “Phosphono substituted tetrazole derivatives as ECE inhibitors” (Ciba-Geigy Corporation, priority 1995, dated 1996).

Each structure is given as a SMILES string.

The subject of assay [1] is DOCA-salt hypertensive rats. Put plainly: antihypertensive effect in DOCA-salt hypertensive rats. As to conditions: 10 mg/Kg p.o., in PEG 400. Format: in vivo, rat. How it is done: The antihypertensive effect can be determined in desoxycorticosterone acetate (DOCA)-salt hypertensive rats.
DOCA-salt hypertensive rats (280-380 g) are prepared by the standard method. Rats underwent a unilateral nephrectomy and one week later are implanted with silastic pellets containing 100 mg/kg of DOCA. The rats are maintained on 1% NaCl/0.2% KCl drinking water for three to five weeks until sustained hypertension is established. The antihypertensive activity is evaluated at this time.
Two days before an experiment, the rats are anesthetized with methoxyflurane and instrumented with catheters in the femoral artery to measure arterial blood pressure. Forty-eight hours later, baseline arterial pressure and heart rate are recorded during a 1 hour period. The test compound or vehicle is then administered and the same cardiovascular parameters are monitored for an additional 5 hours.

For the next assay, the system named is plasma ANF concentration. Description: effect on rat plasma ANF concentration. Format: in vivo, Male Sprague-Dawley rats. As to conditions: about 10 mg/kg p.o., in 10% ethanol/polyethylene glycol 400; ANF infused 450 ng/kg/min i.v. As for the experimental part:
The effect of the compounds of the invention on rat plasma ANF concentration can be determined as follows:
Male Sprague-Dawley rats (275-390 g) are anesthetized with ketamine (150 mg/kg)/acepromazine (10%) and instrumented with catheters in the femoral artery and vein to obtain blood samples and infuse ANF, respectively. The rats are tethered with a swivel system and are allowed to recover for 24 hours before being studied in the conscious, unrestrained state.
In this assay, plasma ANF levels are determined in the presence and absence of NEP inhibition. On the day of study, all rats are infused continuously with ANF at 450 ng/kg/min. i.v. for the entire 5 hours of the experiment. Sixty minutes after beginning the infusion, blood samples for baseline ANF measurements are obtained (time 0) and the rats are then randomly divided into groups treated with the test compound or vehicle. Additional blood samples are taken 30, 60, 120, 180 and 240 minutes after administration of the test compound.
Plasma concentrations are determined by a specific radioimmunoassay. […] The supenatant is decanted and the pellets counted in a gamma counter. […] Plasma ANF levels are expressed as a percent of those measured in vehicle-treated animals which received ANF alone (450 ng/kg/min i.v.).

Assay [2] has as its system big ET-1 induced pressor response. Description: inhibition of big ET-1 induced pressor response in conscious spontaneously hypertensive rats (SHR). Format: in vivo. As to conditions: continuous infusion of 5 mg/Kg/day; over 60 minutes; vs vehicle control. How it is done: ECE inhibition can also be determined in vivo by measuring the inhibition big ET-1 induced pressor response in conscious spontaneously hypertensive rats (SHR), e.g. as described in Biochem. Biophys. Res. Communic. 204, 407-412 (1994).
Male SHR (16-18 weeks of age) are administered either test compound or vehicle (1M NaHCO3) via an osmotic minipump implated subcutaneously. On day 5 femoral arterial and venous catheters are placed in anesthetized rats for the measurement of MAP (mean arterial pressure) and for test compound administration, respectively. After a 48 hour recovery period, MAP is recorded (day 7) through the arterial catheter connected to a pressure transducer. Blood pressure and heart rate are allowed to stabilize for 30 minutes before ganglion blockade is performed using chlorisondamine ([…] i.v.). Approximately 15 minutes later, a bolus dose of big ET-1 (0.25 nmol/kg i.v.) is administered to both vehicle- and test compound treated rats. The change in blood pressure in response to big ET-1 is then compared between the two groups of rats at 1, 5, 10, 15, 30 and 60 min after dosing using a two-way ANOVA.

Assay [3] concerns spontaneous hypertensive rats. Description: mean arterial pressure of spontaneous hypertensive rats using telemetry. The format is in vivo, rat. The note with it: continuous infusion of 5 mg/Kg/day for 13 days, no exogenous big ET-1.
Assay [4] has as its target T1, porcine endothelin converting enzyme (Sus scrofa, UniProt A0A8W4FBH0).
T1 construct: partially purified from porcine primary aortic endothelial cells by DE52 anion exchange column; endogenous in cells; host or cells: porcine primary aortic endothelial cells
T1 sequence (A0A8W4FBH0 1-751): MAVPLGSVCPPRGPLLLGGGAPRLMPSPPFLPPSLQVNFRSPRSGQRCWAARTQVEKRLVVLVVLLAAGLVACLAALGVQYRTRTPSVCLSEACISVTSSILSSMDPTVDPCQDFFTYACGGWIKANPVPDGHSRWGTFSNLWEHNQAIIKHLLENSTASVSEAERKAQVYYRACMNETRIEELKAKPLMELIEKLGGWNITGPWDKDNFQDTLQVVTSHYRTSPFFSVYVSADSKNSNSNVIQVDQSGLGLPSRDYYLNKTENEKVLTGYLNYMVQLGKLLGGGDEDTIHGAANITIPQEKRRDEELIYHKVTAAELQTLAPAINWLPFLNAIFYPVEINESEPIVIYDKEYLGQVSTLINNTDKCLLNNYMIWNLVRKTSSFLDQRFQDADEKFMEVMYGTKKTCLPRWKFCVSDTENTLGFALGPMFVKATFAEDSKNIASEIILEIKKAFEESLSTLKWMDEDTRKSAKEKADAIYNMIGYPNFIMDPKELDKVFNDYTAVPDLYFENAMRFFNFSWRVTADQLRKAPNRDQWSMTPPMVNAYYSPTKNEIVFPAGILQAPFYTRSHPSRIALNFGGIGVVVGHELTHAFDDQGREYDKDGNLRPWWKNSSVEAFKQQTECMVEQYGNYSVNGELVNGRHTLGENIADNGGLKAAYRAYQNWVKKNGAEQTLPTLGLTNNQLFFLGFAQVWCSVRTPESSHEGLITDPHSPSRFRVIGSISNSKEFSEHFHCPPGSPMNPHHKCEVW
Put plainly: in vitro inhibition of porcine endothelin-converting enzyme (ECE). Format: biochemical. The note with it: partially purified from porcine primary aortic endothelial cells. From the text:
Endothelin converting enzyme (ECE) is partially purified from porcine primary aortic endothelial cells by DE52 anion exchange column chromatrography and its activity is quantified by radioimmunoassay as described in Anal. Biochem. 213, 434-436 (1993). The ECE inhibition can be determined as described in Biochem. Mol. Biol. Int. 31, (5), 861-867 (1993), by radioimmunoassay to measure ET-1 formed from big ET-1.

With `O=P(CN[C@@H](Cc1ccc(-c2ccccc2)cc1)c1nnn[nH]1)(Oc1ccccc1)Oc1ccccc1`, in assay [1], the blood pressure entry is “significant reduction in blood pressure”. Moreover, in the assay with plasma ANF concentration, the “plasma ANF levels” value is given as “significant increases in plasma ANF levels”.
`O=P(O)(O)CN[C@@H](Cc1ccc(-c2ccccc2)cc1)c1nnn[nH]1` [(S)-[2-(Biphenyl-4-yl)-1-(1H-tetrazol-5-yl)-ethylamino]-methylphosphonic acid]: the “reduction of big ET-1 induced pressor response” value in assay [2] is “significant difference in reduction of big ET-1 induced pressor response”. Further, the mean arterial pressure entry in assay [3] is on record as “sustained reduction in the mean arterial pressure”. Further, the IC50 in assay [4] was ~1100 nM.

By IC50 is commonly meant the concentration that gives 50% inhibition. A low value points to greater potency in that assay.
